In patent US5753709A, “N-acyl-2 aryl cyclopropylmethylamine derivatives as melatonergics” (Bristol-Myers Squibb Company, priority 1996, dated 1998) one finds IC50 data, which are given here for 34 molecules.

The target of the first assay is T1, human melatonin receptor (human ML1A) (Homo sapiens, UniProt P48039).
T1 construct: expressed in transfected cells; host or cells: COS-1 cells (transient, pcDNAI, DEAE-dextran); membrane homogenates
T1 sequence (P48039 whole entry): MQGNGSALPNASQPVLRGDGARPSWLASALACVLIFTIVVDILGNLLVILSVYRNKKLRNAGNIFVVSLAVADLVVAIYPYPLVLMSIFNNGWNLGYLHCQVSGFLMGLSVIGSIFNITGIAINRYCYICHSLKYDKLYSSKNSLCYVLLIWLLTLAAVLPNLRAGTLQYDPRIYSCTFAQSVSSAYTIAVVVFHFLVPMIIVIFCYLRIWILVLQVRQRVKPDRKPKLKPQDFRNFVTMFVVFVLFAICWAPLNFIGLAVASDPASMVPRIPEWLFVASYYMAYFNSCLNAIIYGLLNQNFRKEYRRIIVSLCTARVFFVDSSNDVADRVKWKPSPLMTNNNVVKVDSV
Put plainly: Melatonergic binding: displacement of 2-[125I]-iodomelatonin at the human melatonin receptor (human ML1A in COS-1 membranes). As to conditions: Table 4; displacement of 2[125I]-Iodomelatonin (100 pM), 37° C., 1 hour. As to the method: The melatonergic binding of the compounds of Formula I was determined by a modification of the method of Reppert, S. M. et al. (Neuron, Volume 13, pages 1177-1185, 1994). […] The reagents, membranes, and other parameters used in the assay are described below:
(a) 50 mM Tris buffer containing 12.5 mM MgCl2, and 2 mM EDTA (pH 7.4 at 37° C.).
(b) Wash buffer: 20 mM Tris base containing 2 mM MgCl2 (pH 7.4 at room temperature).
(c) 6-Chloromelatonin (10^-5 M final concentration).
(d) 2-[^125 I]-Iodomelatonin (100 pM final concentration). (Source: NEN) Membrane preparation: The cDNA (human ML1A) in pcDNAI was introduced into COS-1 cells by the DEAE-dextran method. Three days later, after media removal, the plates were washed with buffered saline; the cells removed using Hank's balanced salt solution and pelleted. The supernant was discarded and the pellets frozen. For membrane homogenates, the pellets were thawed and resuspended in TME buffer, Tris base, MgCl2, EDTA (pH 7.4 at 37° C.), and supplemented with aprotinin, leupeptin, and phenylmethylsulfonyl fluoride. The cells were homogenized and centrifuged; the resulting pellet resuspended in TME and frozen. At assay, the small aliquot was thawed on ice and resuspended in TME buffer. Incubation: 37° C. for 1 hour. Reaction is terminated by filtration.
For the molecule `COc1ccc(F)c([C@@H]2C[C@H]2CNC(=O)C(C)C)c1` (relative stereo) [Example 1, (trans)-N-[[2-(2-Fluoro-5-methoxyphenyl)cyclopropyl]methyl]-2-methylpropanamide], the half-maximal inhibitory concentration (IC50) – broadly, the concentration needed to halve the response being measured – lay within 40 to 250 nM.

Consider `CCCC(=O)NC[C@@H]1C[C@H]1c1cccc(OC)c1` (relative stereo) [Example 2, (trans)-N-[[2-(3-Methoxyphenyl)cyclopropyl]methyl] butanamide], for which the IC50 was less than 5 nM.

Molecule `CCCC(=O)NC[C@@H]1C[C@H]1c1cc(OC)ccc1I` (relative stereo) [Example 4, (trans)-N-[[2-(2-Iodo-5-methoxyphenyl)cyclopropyl]methyl]butanamide] gave an IC50 of less than 5 nM.

Molecule `CCCC(=O)N(Cc1ccccc1)C[C@@H]1C[C@H]1c1cccc(OC)c1` (relative stereo) [Example 6, (trans)-N-[[2-(3-Methoxyphenyl)cyclopropyl]methyl]-N-(phenylmethyl) butanamide] gave an IC50 of 40 to 250 nM.

Consider `CCC(=O)NC[C@@H]1C[C@H]1c1cccc(OC)c1` (relative stereo) [Example 18, (trans)-N-[[2-(3-Methoxyphenyl)cyclopropyl]methyl] propanamide], for which the half-maximal inhibitory concentration (IC50) was less than 5 nM.

Turning to `COc1cccc([C@@H]2C[C@H]2CNC(C)=O)c1` (relative stereo) [Example 19, (trans)-N-[[2-(3-Methoxyphenyl)cyclopropyl]methyl] acetamide], the 50% inhibitory concentration (IC50) fell in the range of 5 to 40 nM.

`COCC(=O)NC[C@@H]1C[C@H]1c1cccc(OC)c1` (relative stereo) [Example 20, (trans)-N-[[2-(3-Methoxyphenyl)cyclopropyl]methyl]-2-methoxyacetamide] yielded an IC50 of 5 to 40 nM.

Consider `COc1cccc([C@@H]2C[C@H]2CNC(=O)C(C)C)c1` (relative stereo) [Example 21], for which the IC50 lay in the range of 5 to 40 nM.

`CCCCC(=O)NC[C@@H]1C[C@H]1c1cccc(OC)c1` (relative stereo) [Example 25] returned an IC50 of 40 to 250 nM.

The assay is the same for the next values; noted with them: Table 5; displacement of 2[125I]-Iodomelatonin (100 pM), 37° C., 1 hour.
Turning to `CCCC(=O)NC[C@@H]1C[C@H]1c1cccc(O)c1` (relative stereo) [Example 7a, (trans)-N-[[2-(3-Hydroxyphenyl)cyclopropyl]methyl] butanamide], the IC50 lay in the range of 250 to 600 nM.

In the case of `C=CCOc1cccc([C@@H]2C[C@H]2CNC(=O)CCC)c1` (relative stereo) [Example 7b, (trans)-N-[[2-[3-(2-Propenyloxy)phenyl]cyclopropyl]methyl] butanamide], the half-maximal inhibitory concentration (IC50) lay in the range of 5 to 40 nM.

`CCCC(=O)NC[C@@H]1C[C@H]1c1cccc(OCCO)c1` (relative stereo) [Example 15]: the concentration for half-maximal inhibition (IC50) fell in the range of 40 to 250 nM.

Molecule `CCCC(=O)NC[C@@H]1C[C@H]1c1cccc(OCCCCCCc2ccccc2)c1` (relative stereo) [Example 45] registered a half-maximal inhibitory concentration (IC50) of 40 to 250 nM.

For the molecule `CCCC(=O)NC[C@@H]1C[C@H]1c1cccc(OCCCCCCCc2ccccc2)c1` (relative stereo) [Example 46, (trans)-N-[[2-[3-[(7-Phenylheptyl)oxy]phenyl]cyclopropyl]methyl] butanamide], the IC50 is 5 to 40 nM.

As to `CCCC(=O)NC[C@@H]1C[C@H]1c1cccc(OCCCC#Cc2ccccc2)c1` (relative stereo) [Example 47], the IC50 was in the range of 250 to 600 nM.

Molecule `CCCC(=O)NC[C@@H]1C[C@H]1c1cccc(OCC)c1` (relative stereo) [Example 48] came in with an IC50 of 5 to 40 nM.

Turning to `CCCCCCCOc1cccc([C@@H]2C[C@H]2CNC(=O)CCC)c1` (relative stereo) [Example 53, (trans)-N-[[2-[3-(Heptyloxy)phenyl]cyclopropyl]methyl] butanamide], the concentration for half-maximal inhibition (IC50) lay within 40 to 250 nM.

Molecule `CCCCCCCCOc1cccc([C@@H]2C[C@H]2CNC(=O)CCC)c1` (relative stereo) [Example 54, (trans)-N-[[2-[(3-Octyloxy)phenyl]cyclopropyl]methyl] butanamide] registered an IC50 of 5 to 40 nM.

With `CCCCCCCCCOc1cccc([C@@H]2C[C@H]2CNC(=O)CCC)c1` (relative stereo) [Example 55, (trans)-N-[[2-[3-(Nonyloxy)phenyl]cyclopropyl]methyl] butanamide], the IC50 lay in the range of 40 to 250 nM.

The molecule `CCCCCCCCCCOc1cccc([C@@H]2C[C@H]2CNC(=O)CCC)c1` (relative stereo) [Example 56, (trans)-N-[[2-[(3-Decyloxy)phenyl]cyclopropyl]methyl] butanamide] returned an IC50 of 5 to 40 nM.

`CCCCCCCCCCCOc1cccc([C@@H]2C[C@H]2CNC(=O)CCC)c1` (relative stereo) [Example 57, (trans)-N-[[2-[(3-Undecyloxy)phenyl]cyclopropyl]methyl] butanamide] registered a half-maximal inhibitory concentration (IC50) of 5 to 40 nM.

On to `CCCCCCCCCCCCOc1cccc([C@@H]2C[C@H]2CNC(=O)CCC)c1` (relative stereo) [Example 58, (trans)-N-[[2-[(3-Dodecyloxy)phenyl]cyclopropyl]methyl] butanamide], for which the IC50 was 5 to 40 nM.

With `CCCCCCCCCCCCCCCCOc1cccc([C@@H]2C[C@H]2CNC(=O)CCC)c1` (relative stereo) [Example 59], the half-inhibitory concentration (IC50) lay in the range of 250 to 600 nM.

`CCCC(=O)NC[C@@H]1C[C@H]1c1cccc(OCCc2ccccc2)c1` (relative stereo) [Example 60, (trans)-N-[[2-[3-[(2-Phenylethyl)oxy]phenyl]cyclopropyl]methyl] butanamide] showed an IC50 of 5 to 40 nM.

The molecule `CCCC(=O)NC[C@@H]1C[C@H]1c1cccc(OCC(C)C)c1` (relative stereo) [Example 61] registered an IC50 of 250 to 600 nM.

On to `CCCC(=O)NC[C@@H]1C[C@H]1c1cccc(OCCCc2cccc(OC)c2)c1` (relative stereo) [Example 62, (trans)-N-[[2-[3-[3-(3-Methoxyphenyl)propoxy]phenyl]cyclopropyl]methyl] butanamide], for which the concentration for half-maximal inhibition (IC50) is 5 to 40 nM.

With `CCCC(=O)NC[C@@H]1C[C@H]1c1cccc(OCCCc2ccncc2)c1` (relative stereo) [Example 63], the half-inhibitory concentration (IC50) was 40 to 250 nM.

Molecule `CCCC(=O)NC[C@@H]1C[C@H]1c1cc(OC(F)(F)F)ccc1Br` (relative stereo) [Example 72] yielded an IC50 of 40 to 250 nM.

In turn, `CCCC(=O)NC[C@@H]1C[C@H]1c1cccc(Br)c1` (relative stereo) [Example 73, (trans)-N-[[2-(3-Bromophenyl)cycloprop-1-yl]methyl] butanamide] had a concentration for half-maximal inhibition (IC50) of 5 to 40 nM.

In the case of `CCCC(=O)NC[C@@H]1C[C@H]1c1cccc(C)c1` (relative stereo) [Example 75, (trans)-N-[[2-(3-Methylphenyl)cycloprop-1-yl]methyl] butanamide], the IC50 was 5 to 40 nM.

For the molecule `CC(=O)NC[C@@H]1C[C@H]1c1cccc(C)c1` (relative stereo) [Example 78, (trans)-N-[[2-(3-Methylphenyl)cycloprop-1-yl]methyl] acetamide], the half-maximal inhibitory concentration (IC50) was in the range of 40 to 250 nM.

As to `CCCC(=O)NC[C@@H]1C[C@H]1c1cccc(Cl)c1` (relative stereo) [Example 80, (trans)-N-[[2-(3-Chlorophenyl)cycloprop-1-yl]methyl] butanamide], the IC50 is 5 to 40 nM.

In turn, `CCCC(=O)NC[C@@H]1C[C@H]1c1cc(F)ccc1F` (relative stereo) [Example 87, (trans)-N-[[2-(2,5-Difluorophenyl)cycloprop-1-yl]methyl] butanamide] yielded an IC50 of 40 to 250 nM.

`CCCC(=O)NC[C@@H]1C[C@H]1c1cccc(OCCCF)c1` (relative stereo) [Example 94]: the half-maximal inhibitory concentration (IC50) was in the range of 40 to 250 nM.
